From patent publication US20100310685A1, “PUPICIDAL AND LARVICIDAL COMPOSITION” (priority 2008, published 2010)

Test system: pupae of Nematocera Diptera (for example mosquitoes)
Test: specific research on pupicidal action
Conditions: in vivo

Compound: CCCCCCCCCCCCCCCCO [cetyl alcohol, 1-hexadecanol]
- pupicidal action (kills pupae): excellent pupicide
